# pEC50: −log10 of the molar value. Like-named read-outs stand apart in the source and are kept apart here.
# How the values were obtained:
# Toll-like receptor 7 = Toll-like receptor 7 (Homo sapiens (Human), UniProt Q9NYK1); assay: Toll-like receptor 7 in vitro receptor binding activity screen (HEK-blue hTLR7 cell, alkaline phosphatase/Quanti-Blue readout); format: cell-based; conditions: for pEC50: HEK-blue hTLR7 cell, read-out: TLR7 EC50
# Description: (§1) Toll-Like Receptor 7 and Toll-Like Receptor 8 In Vitro Receptor Binding Activity Screen
# (§2) HEK-blue hTLR7 cell and HEK-blue hTLR8 cell (available from InvivoGen)
# (§3) 1. Preparation of 96-well compound plate:
# (§4) The compounds were gradient diluted with DMSO in 3-fold using liquid work station POD starting at a concentration of 10 mmol/L and 10 points were diluted (2nd column to 11th column, and each point was duplicated). At 12th column, 1 μL of 5 mg/mL positive compound R848 was added as positive control; and at 1st column, 1 μL of DMSO was added as negative control. Each well contained 1 μL of DMSO.
# (§5) 2. The cells in culture flask were collected and the cell density was diluted to 250,000 cells/mL.
# (§6) 3. 200 μL (50,000 cells/well) of cell suspension was added into prepared compound plate and the final concentration of DMSO in each well was 0.5%.
# (§7) 4. The culture plates containing cells and the compounds were incubated in CO2 incubator for 24 h at 37° C., 5% CO2.
# (§8) 5. After 24 h incubation, 20 μL of supernatant was removed from each well to a 96-well transparent assay plate. To each well of the assay plate was added 180 μL of Quanti-Blue reagent and the plate was incubated in an incubator at 37° C., 5% CO2 for 1 h.
# (§9) 6. After 1 h, the content of alkaline phosphatase in 20 μL of supernatant was determined using Microplate Reader OD650.
# (§10) 7. EC50 of each compound was obtained with Prism software.
# Toll-like receptor 8 = Toll-like receptor 8 (Homo sapiens (Human), UniProt Q9NR97); assay: Toll-like receptor 8 in vitro receptor binding activity screen (HEK-blue hTLR8 cell, alkaline phosphatase/Quanti-Blue readout); format: cell-based; conditions: for pEC50: HEK-blue hTLR8 cell, head-to-head test, read-out: TLR8 EC50
# Sequence of Toll-like receptor 8 (Q9NR97 27-1041): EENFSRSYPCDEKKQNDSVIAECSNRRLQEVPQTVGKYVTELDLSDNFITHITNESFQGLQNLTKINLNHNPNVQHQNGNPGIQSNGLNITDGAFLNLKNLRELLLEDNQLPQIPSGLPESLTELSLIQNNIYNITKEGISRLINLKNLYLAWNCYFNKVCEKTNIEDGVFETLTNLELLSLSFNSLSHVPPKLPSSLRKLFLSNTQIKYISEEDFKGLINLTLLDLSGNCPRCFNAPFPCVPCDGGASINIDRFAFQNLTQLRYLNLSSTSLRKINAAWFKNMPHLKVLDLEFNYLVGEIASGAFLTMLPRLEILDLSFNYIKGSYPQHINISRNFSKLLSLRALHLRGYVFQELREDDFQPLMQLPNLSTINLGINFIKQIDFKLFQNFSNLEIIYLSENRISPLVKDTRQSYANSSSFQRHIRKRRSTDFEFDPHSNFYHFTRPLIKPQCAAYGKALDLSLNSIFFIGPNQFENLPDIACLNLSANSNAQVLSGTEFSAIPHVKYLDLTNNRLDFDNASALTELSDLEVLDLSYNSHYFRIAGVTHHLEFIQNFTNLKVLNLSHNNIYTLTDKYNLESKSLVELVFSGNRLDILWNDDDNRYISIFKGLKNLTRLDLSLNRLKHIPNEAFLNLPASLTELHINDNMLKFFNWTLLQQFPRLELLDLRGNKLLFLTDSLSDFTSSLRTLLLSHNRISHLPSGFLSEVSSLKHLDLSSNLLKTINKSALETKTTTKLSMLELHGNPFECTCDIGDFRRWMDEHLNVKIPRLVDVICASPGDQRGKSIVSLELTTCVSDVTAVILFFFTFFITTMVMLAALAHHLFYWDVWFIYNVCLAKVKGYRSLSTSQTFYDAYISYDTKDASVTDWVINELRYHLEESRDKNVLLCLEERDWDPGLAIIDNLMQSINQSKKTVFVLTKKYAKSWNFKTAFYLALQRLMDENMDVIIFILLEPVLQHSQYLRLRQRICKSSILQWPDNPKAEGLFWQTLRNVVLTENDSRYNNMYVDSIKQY
# Description: as §1, §2, §3, §4, §5, §6, §7, §8, §9, §10
# [1] = test system: human peripheral blood mononuclear cells (PBMC); assay: Peripheral blood mononuclear cell assay (cytokine induction, CBA); format: cell-based; conditions: for minimal effective concentration: Homo sapiens, read-out: INF-α MEC; for minimal effective concentration / TNF-α MEC: 24 h, human PBMC
# Description: Peripheral Blood Mononuclear Cell Assay The purpose of this example is to determine the expression level of cytokines 24 h after stimulation to human peripheral blood mononuclear cells (PBMC) with the compounds. The cell supernatant was assayed without dilution and the levels of IFN-α and TNF-α were directly determined. The compound was firstly formulated into 20 mM DMSO stock solution and was gradient diluted with cell medium in 10-fold with the total number of 11 diluting points. The compounds in 9 diluting points (the highest concentration was 200 μmol/L) were added into 96-well plate with 50 μL in each well. Fresh human peripheral blood mononuclear cells were inoculated, with 150 μL in each well containing 450,000 cells. The cell culture plate was incubated in an incubator at 37° C., 5% CO2 for 24 h. After incubation, the culture plate was centrifuged at 1200 rpm for 5 min and the supernatant was collected and stored at −20° C. for determination. The determination of cytokine was performed using Cytometric Bead Array (CBA) of BD-Pharmingen on flow cytometer. Using the above determining method, the lowest drug concentration stimulating cytokine level which is over 3 times greater than the lowest detectable limit was designated as the MEC (Minimal Effective Concentration) value in the cytokine stimulating test.
# in vivo = conditions: rat; for AUC(0-inf) / AUC(0-t) / Cmax / Vd / clearance / half-life / Mean plasma drug concentration: male, SD
# Description: 12 male SD rats were divided into 4 groups with 3 SD rats in each group. […] […] Each rat with oral administration was collected for whole blood samples which were prepared into plasma 15, 30 min and 1, 2, 4, 8, 24 h continuously after administration.
# duck hepatitis b virus = assay: In vivo pharmacodynamics in duckling model infected with hepatitis B virus; design: species or system Beijing ducks; conditions: for rebound of HBV-DNA replication: 20 mg/kg one administration every third day, 3 days after ceasing administration
# Description: In Vivo Pharmacodynamics in Duckling Model Infected with Hepatitis B Virus
# Experimental design and procedures: Beijing ducks of 1 day old were intravenously administered duck hepatitis b virus positive duck serum. After 7 days, the animals were administered according to grouping, 6 ducks in each group. Control group: normal saline. […] The samples were administered intragastricly: 20 mg/kg groups were administered once every third day (one administration every 3 days) and 5 mg/kg groups were administered once every day for 16 days. […] For control group infected with duck hepatitis b virus, solvent was used instead of drug. 7 days after infection, the blood was collected before administration (TO),8 days after administration (T8),16 days after administration (T16) and 3 day after ceasing administration (P3), and the duck serum was separated and frozen for storage. […] Duck serum DNA (DHBV-DNA) determination: different duck sera in a batch were determined for duck blood DHBV-DNA level with real time fluorescent quantitative PCR. Statistics analysis: paired and grouped analysis was used to calculate the significance of inhibition of drug on duck serum DHBV-DNA for assessment.
# hepatitis b virus = assay: In vivo pharmacodynamics in HDI (hydrodynamic injection) mouse model infected with hepatitis b virus; conditions: 20 mg/kg intragastric, once a day, day 1 to day 7; FIGS. 1 and 2
# Description: In Vivo Pharmacodynamics in HDI (Hydrodynamic Injection) Mouse Model Infected with Hepatitis b Virus
# Experimental Design and Procedures:
# Route: intragastric administration
# Administration time: day 1 to day 7, 7 days in total
# At day 1, 3, 5 and 7, plasma samples were collected 4 h after administration; and at day 7, liver sample was collected 4 h after administration.
# [2] = 5 mg/kg intragastric once every day for 16 days, P3
# [3] = 5 mg/kg intragastric once every day for 16 days, T8
# [4] = 20 mg/kg intragastric once every third day, P3 (3 days after ceasing administration)
# [5] = 20 mg/kg intragastric once every third day, T8 (8 days after administration)
# [6] = 20 mg/kg intragastric once every third day, T16 (16 days after administration)
# Sequence of Toll-like receptor 7 (Q9NYK1 27-1049): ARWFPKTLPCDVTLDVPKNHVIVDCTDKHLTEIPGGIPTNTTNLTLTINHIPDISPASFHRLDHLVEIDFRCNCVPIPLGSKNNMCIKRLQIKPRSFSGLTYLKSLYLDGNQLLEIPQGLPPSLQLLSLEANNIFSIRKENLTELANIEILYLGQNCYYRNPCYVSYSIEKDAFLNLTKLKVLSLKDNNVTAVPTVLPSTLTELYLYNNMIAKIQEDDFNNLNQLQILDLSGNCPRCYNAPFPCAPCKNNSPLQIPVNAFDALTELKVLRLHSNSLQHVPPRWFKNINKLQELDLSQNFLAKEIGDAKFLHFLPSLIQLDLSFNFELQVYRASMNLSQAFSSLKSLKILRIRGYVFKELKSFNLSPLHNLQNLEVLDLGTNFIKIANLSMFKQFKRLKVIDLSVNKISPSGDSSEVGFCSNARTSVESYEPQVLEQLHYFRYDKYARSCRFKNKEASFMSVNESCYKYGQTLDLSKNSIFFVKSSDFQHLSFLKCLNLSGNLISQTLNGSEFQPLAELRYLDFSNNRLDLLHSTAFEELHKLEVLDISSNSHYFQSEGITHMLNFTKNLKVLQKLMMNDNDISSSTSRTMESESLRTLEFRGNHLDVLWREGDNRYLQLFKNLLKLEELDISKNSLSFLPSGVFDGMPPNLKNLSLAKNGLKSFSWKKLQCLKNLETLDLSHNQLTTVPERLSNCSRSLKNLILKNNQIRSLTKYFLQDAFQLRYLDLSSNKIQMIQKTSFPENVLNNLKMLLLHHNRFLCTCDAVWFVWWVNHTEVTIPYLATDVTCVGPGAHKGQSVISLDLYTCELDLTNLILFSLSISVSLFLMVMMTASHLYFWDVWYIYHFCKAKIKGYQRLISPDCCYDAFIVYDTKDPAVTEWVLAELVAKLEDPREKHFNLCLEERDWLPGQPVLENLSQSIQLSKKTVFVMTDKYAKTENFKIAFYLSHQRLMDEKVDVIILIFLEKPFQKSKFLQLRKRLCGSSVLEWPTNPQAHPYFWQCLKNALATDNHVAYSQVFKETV
compound,measurement,setting,value
"CCCCOc1nc(N)c2[nH]cc(Cc3ccc(CN4CCCC4)cc3)c2n1 [Example 21, 2-butoxy-7-(4-(pyrrolidine-1-ylmethyl)benzyl)-5H-pyrrolo[3,2-d]pyrimidine-4-amine]",pEC50,Toll-like receptor 7; 24 h,6.00 to 7.00
same,pEC50,Toll-like receptor 7; head-to-head test,6.80
same,in vitro receptor binding activity to Toll-like receptor 7 compared with GS-9620,Toll-like receptor 7; versus control GS-9620,higher
same,pEC50,Toll-like receptor 8,4.93
same,in vitro receptor binding activity to Toll-like receptor 8 compared with GS-9620,Toll-like receptor 8; versus control GS-9620,lower
same,minimal effective concentration,"[1]; PBMC, Minimal Effective Concentration",1e-05 to 0.001 µM
same,minimal effective concentration,"[1]; PBMC, head-to-head test",0.005 µM
same,TNF-α inducing activity compared with GS-9620,"[1]; PBMC, versus control GS-9620",comparable
same,in vitro IFN-α inducing activity compared with GS-9620,"[1]; PBMC, versus control GS-9620",higher
same,TNF-α MEC,[1]; head-to-head test,500 nM
same,AUC(0-inf),"in vivo; iv, 1 mg/kg",0.676 µM·h
same,AUC(0-t),"in vivo; iv, 1 mg/kg",0.641 µM·h
same,Cmax,"in vivo; iv, 1 mg/kg",478 nM
same,Vd,"in vivo; iv, 1 mg/kg",29 L/kg
same,clearance,"in vivo; iv, 1 mg/kg",65.8 mL/min/kg
same,half-life,"in vivo; iv, 1 mg/kg",5.76 h
same,Mean plasma drug concentration,"in vivo; iv, 1 mg/kg, 0.083 h",318 nM
same,Mean plasma drug concentration,"in vivo; iv, 1 mg/kg, 0.25 h",141 nM
same,Mean plasma drug concentration,"in vivo; iv, 1 mg/kg, 0.5 h",109 nM
same,Mean plasma drug concentration,"in vivo; iv, 1 mg/kg, 1 h",74.3 nM
same,Mean plasma drug concentration,"in vivo; iv, 1 mg/kg, 2 h",48.9 nM
same,Mean plasma drug concentration,"in vivo; iv, 1 mg/kg, 4 h",37.7 nM
same,Mean plasma drug concentration,"in vivo; iv, 1 mg/kg, 8 h",31.6 nM
same,Mean plasma drug concentration,"in vivo; iv, 1 mg/kg, 24 h",3.94 nM
same,AUC(0-inf),"in vivo; po, 5 mg/kg",0.749 µM·h
same,AUC(0-t),"in vivo; po, 5 mg/kg",0.699 µM·h
same,Cmax,"in vivo; po, 5 mg/kg",186 nM
same,half-life,"in vivo; po, 5 mg/kg",6.24 h
same,Mean plasma drug concentration,"in vivo; po, 5 mg/kg, 0.25 h",69.4 nM
same,Mean plasma drug concentration,"in vivo; po, 5 mg/kg, 0.5 h",41.6 nM
same,Mean plasma drug concentration,"in vivo; po, 5 mg/kg, 1 h",36.4 nM
same,Mean plasma drug concentration,"in vivo; po, 5 mg/kg, 2 h",186 nM
same,Mean plasma drug concentration,"in vivo; po, 5 mg/kg, 4 h",51.2 nM
same,Mean plasma drug concentration,"in vivo; po, 5 mg/kg, 8 h",23.9 nM
same,Mean plasma drug concentration,"in vivo; po, 5 mg/kg, 24 h",5.25 nM
same,exposure compared with GS-9620,in vivo,higher exposure
same,half-life compared with GS-9620,in vivo,longer half-life
same,Duck serum HBV-DNA inhibition %,duck hepatitis b virus; [2],95.55 ± 3.56 %
same,Duck serum HBV-DNA inhibition %,duck hepatitis b virus; [3],99.96 ± 0.06 %
same,inhibition rate compared with GS-9620,"duck hepatitis b virus; 5 mg/kg, one administration everyday",significant advantage
same,Duck serum HBV-DNA inhibition %,duck hepatitis b virus; [4],92.81 ± 13.79 %
same,Duck serum HBV-DNA inhibition %,duck hepatitis b virus; [5],100.0 ± 0 %
same,Duck serum HBV-DNA inhibition %,duck hepatitis b virus; [6],98.80 ± 1.84 %
same,rebound of HBV-DNA replication,duck hepatitis b virus,no rebound
same,inhibition rate compared with GS-9620,"duck hepatitis b virus; 20 mg/kg, one administration every third day",roughly comparable
same,efficacy by HBV copy numbers in plasma and liver compared with GS-9620,hepatitis b virus,better efficacy
"CCCCOc1nc(N)c2c(n1)N(Cc1cccc(CN3CCCC3)c1)CC(=O)N2 [GS-9620, reference compound]",pEC50,Toll-like receptor 7; head-to-head test,6.29
same,pEC50,Toll-like receptor 8,5.10
same,minimal effective concentration,"[1]; PBMC, head-to-head test",0.05 µM
same,TNF-α MEC,[1]; head-to-head test,500 nM
same,half-life,"in vivo; 1 mg/kg, IV 1 mpk, read-out: T½ (converted)",2.57 h
same,half-life,"in vivo; 5 mg/kg, PO 5 mpk, read-out: T½ (converted)",2.24 h
same,AUC(0-inf),"in vivo; iv, 1 mg/kg",0.201 µM·h
same,AUC(0-t),"in vivo; iv, 1 mg/kg",0.185 µM·h
same,Cmax,"in vivo; iv, 1 mg/kg",220 nM
same,Vd,"in vivo; iv, 1 mg/kg",32.8 L/kg
same,clearance,"in vivo; iv, 1 mg/kg",205 mL/min/kg
same,Mean plasma drug concentration,"in vivo; iv, 1 mg/kg, 0.083 h",170 nM
same,Mean plasma drug concentration,"in vivo; iv, 1 mg/kg, 0.25 h",102 nM
same,Mean plasma drug concentration,"in vivo; iv, 1 mg/kg, 0.5 h",65.4 nM
same,Mean plasma drug concentration,"in vivo; iv, 1 mg/kg, 1 h",48.1 nM
same,Mean plasma drug concentration,"in vivo; iv, 1 mg/kg, 2 h",21.6 nM
same,Mean plasma drug concentration,"in vivo; iv, 1 mg/kg, 4 h",13 nM
same,Mean plasma drug concentration,"in vivo; iv, 1 mg/kg, 8 h",4.17 nM
same,AUC(0-inf),"in vivo; po, 5 mg/kg",0.359 µM·h
same,AUC(0-t),"in vivo; po, 5 mg/kg",0.316 µM·h
same,Cmax,"in vivo; po, 5 mg/kg",164 nM
same,Mean plasma drug concentration,"in vivo; po, 5 mg/kg, 0.25 h",56.3 nM
same,Mean plasma drug concentration,"in vivo; po, 5 mg/kg, 0.5 h",33.2 nM
same,Mean plasma drug concentration,"in vivo; po, 5 mg/kg, 1 h",83.4 nM
same,Mean plasma drug concentration,"in vivo; po, 5 mg/kg, 2 h",136 nM
same,Mean plasma drug concentration,"in vivo; po, 5 mg/kg, 4 h",16.7 nM
same,Mean plasma drug concentration,"in vivo; po, 5 mg/kg, 8 h",9.49 nM
same,Duck serum HBV-DNA inhibition %,duck hepatitis b virus; [2],70.60 ± 47.66%
same,Duck serum HBV-DNA inhibition %,duck hepatitis b virus; [3],98.66 ± 2.75 %
same,Duck serum HBV-DNA inhibition %,"duck hepatitis b virus; 5 mg/kg intragastric once every day for 16 days, T16",78.02 ± 51.69%
same,Duck serum HBV-DNA inhibition %,duck hepatitis b virus; [4],−132.97 ± 352.35%
same,Duck serum HBV-DNA inhibition %,duck hepatitis b virus; [5],99.13 ± 1.83 %
same,Duck serum HBV-DNA inhibition %,duck hepatitis b virus; [6],98.26 ± 1.50 %
same,rebound of HBV-DNA replication,duck hepatitis b virus,rebound of HBV-DNA replication

# From patent US9962388B2, “Pyrrolopyrimidine compounds used as TLR7 agonist” (priority 2014, dated 2018)
